Results reported in paper PMC7983974 (Basic & Clinical Pharmacology & Toxicology, 2020).

Legend:
UGT1A6 = molecular target: T1, UGT1A6 (Homo sapiens, UniProt P19224); experiment: M1 formation from molidustat by recombinant UGT1A6; type: in vitro ADME; conditions: 1 and 10 µmol L^−1
T1 sequence (P19224 27-532): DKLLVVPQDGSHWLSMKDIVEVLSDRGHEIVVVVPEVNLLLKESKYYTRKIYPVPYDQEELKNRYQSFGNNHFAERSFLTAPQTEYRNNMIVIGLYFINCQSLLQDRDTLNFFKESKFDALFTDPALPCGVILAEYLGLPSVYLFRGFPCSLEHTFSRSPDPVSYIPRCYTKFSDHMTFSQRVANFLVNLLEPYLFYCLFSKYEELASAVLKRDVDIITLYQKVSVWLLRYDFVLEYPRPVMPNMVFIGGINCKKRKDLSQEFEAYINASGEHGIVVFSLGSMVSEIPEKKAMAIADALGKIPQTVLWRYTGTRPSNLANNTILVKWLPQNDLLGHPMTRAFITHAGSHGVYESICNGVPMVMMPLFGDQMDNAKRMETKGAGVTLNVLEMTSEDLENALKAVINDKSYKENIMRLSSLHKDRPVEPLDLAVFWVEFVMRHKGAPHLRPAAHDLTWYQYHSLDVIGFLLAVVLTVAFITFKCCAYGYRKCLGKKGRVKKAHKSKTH

UGT2B4 = molecular target: T2, UGT2B4 (Homo sapiens, UniProt P06133); experiment: M1 formation from molidustat by recombinant UGT2B4; type: in vitro ADME; conditions: 1 and 10 µmol L^−1
T2 sequence (P06133 24-528): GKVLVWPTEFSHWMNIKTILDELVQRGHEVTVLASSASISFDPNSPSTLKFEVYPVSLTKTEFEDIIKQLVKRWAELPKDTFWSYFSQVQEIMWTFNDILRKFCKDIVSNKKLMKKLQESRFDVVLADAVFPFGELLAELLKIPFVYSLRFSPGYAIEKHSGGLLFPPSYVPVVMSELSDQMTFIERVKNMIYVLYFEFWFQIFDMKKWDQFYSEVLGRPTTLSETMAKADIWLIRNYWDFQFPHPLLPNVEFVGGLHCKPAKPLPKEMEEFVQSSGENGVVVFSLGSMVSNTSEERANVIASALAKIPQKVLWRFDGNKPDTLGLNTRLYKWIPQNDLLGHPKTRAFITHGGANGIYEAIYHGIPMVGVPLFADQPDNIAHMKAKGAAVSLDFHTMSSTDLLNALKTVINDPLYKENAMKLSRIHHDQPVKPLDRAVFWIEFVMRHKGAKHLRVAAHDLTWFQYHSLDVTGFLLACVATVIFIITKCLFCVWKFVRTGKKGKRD

UGT2B7 = molecular target: T3, UGT2B7 (Homo sapiens, UniProt P16662); experiment: M1 formation from molidustat by recombinant UGT2B7; type: in vitro ADME; conditions: 1 and 10 µmol L^−1
T3 sequence (P16662 24-529): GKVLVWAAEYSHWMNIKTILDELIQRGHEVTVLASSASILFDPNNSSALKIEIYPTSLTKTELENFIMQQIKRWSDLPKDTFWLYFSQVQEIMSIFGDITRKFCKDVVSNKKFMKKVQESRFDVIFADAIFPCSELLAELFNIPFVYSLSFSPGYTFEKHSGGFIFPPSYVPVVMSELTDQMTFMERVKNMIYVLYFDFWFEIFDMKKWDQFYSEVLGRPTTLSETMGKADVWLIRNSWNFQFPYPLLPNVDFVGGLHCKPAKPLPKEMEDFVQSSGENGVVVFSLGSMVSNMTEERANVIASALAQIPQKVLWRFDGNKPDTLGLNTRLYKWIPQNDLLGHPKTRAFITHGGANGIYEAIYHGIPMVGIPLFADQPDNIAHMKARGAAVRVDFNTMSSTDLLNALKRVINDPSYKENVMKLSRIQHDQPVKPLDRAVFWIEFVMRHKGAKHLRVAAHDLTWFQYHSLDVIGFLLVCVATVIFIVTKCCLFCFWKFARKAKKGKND

[1] = test system: UGT-mediated glucuronidation of molidustat; experiment: Enzyme kinetics of molidustat glucuronidation in pooled human liver microsomes; type: in vitro ADME; conditions: human, pooled human liver microsomes, pH 7.4
[2] = test system: pooled human liver microsomes; experiment: as above; type: in vitro ADME; conditions: human liver microsomes, Hill equation
EPO = experiment: Clinical DDI study: pharmacodynamics, serum erythropoietin; type: in vivo, human; conditions: N 13

- activity for glucuronidation of molidustat (UGT1A6): lacked measurable activity
- activity for glucuronidation of molidustat (UGT2B4): lacked measurable activity
- activity for glucuronidation of molidustat (UGT2B7): lacked measurable activity
- Km [1]: 90 µM
- estimated S50 [2]: 90 µmol/L
SMILES: O=c1c(-n2ccnn2)c[nH]n1-c1cc(N2CCOCC2)ncn1 [Molidustat]
- EPO AUC(0‐24), absolute EPO concentration, arithmetic mean ± SD (EPO): 385 ± 121 IU L^−1*h
- EPO AUC(0‐24), absolute EPO concentration, geometric mean/CV% (EPO): 365 IU L^−1*h
- EPO C max, difference to baseline, arithmetic mean ± SD (EPO): 12.8 ± 4.02 IU L^−1
- EPO C max, ratio to baseline, arithmetic mean ± SD (EPO): 2.62 ± 0.578
- EPO C max, ratio to baseline, geometric mean/CV% (EPO): 2.56
